# Literature values as cited in publication PMC2700308 (Biochemistry, 2009).
# System: a protein
# Conditions: calorimetric; ref [33]
smiles,measurement,value
O=S(=O)(O)O [sulfate],ΔH of binding of sulfate to a protein,4.3 kcal/mol
